According to patent US20050090454A1, “Combination of dehydroepiandrosterone or dehydroepiandrosterone-sulfate with an antihistamine for treatment of asthma or chronic obstructive pulmonary disease” (priority 2003, published 2005):
“And” between values parts separate entries of the source, which are not always exact repeats. Equal entries are not always repeated.

Key:
HT-29 SF cells [1] = test: DHEA effect on cell cycle distribution (flow cytometry); format: cell-based, human; details: 25, 50 or 200 μM, 24-72 hours, time- and dose-dependent
Procedure: Cultures were trypsinized following 0, 24, 48, or 74 hours and fixed and stained using a modification of a procedure of Bauer et al., Cancer Res. 46, 3173-3178 (1986). Briefly, cells were collected by centrifugation and resuspended in cold phosphate-buffered saline. Cells were fixed in 70% ethanol, washed, and resuspended in phosphate-buffered saline.
After 24, 48, and 72 hours, cells were harvested, fixed in ethanol, and stained with propidium iodide, and the DNA content/cell was determined by flow cytometric analysis. The percentage of cells in G1, S, and G2M phases was calculated using the Cellfit cell cycle analysis program. S phase is marked by a quadrangle for clarity. Representative histograms from duplicate determinations are shown. The experiment was repeated three times.

HT-29 SF cells [2] = test: DHEA effect on cell growth (Coulter counter); details: 12.5-200 μM, 24-72 hours
Procedure: Cell cultures, HT-29 SF cells, which represent a subline of HY-29 cells (ATCC, Rockville, Md.) and are adapted for growth in completely defined serum-free PC-1 medium (Ventrex, Portland, Me.), were obtained. Stock cultures were maintained in this medium at 37° C. (in a humidified atmosphere containing 5% CO2).

HT-29 SF cells [3] = test: Reversal of DHEA effect on cell cycle; format: cell-based, human; details: supplement with 25 μM DHEA
[4] = test system: rat peritoneal mast cells; test: Histamine secretion after stimulation with compound 48/80; format: cell-based
Procedure: Freshly isolated rat peritoneal mast cells (2×10^5 cells) were pre-incubated for 5 min at 37° C. in a Balanced Salt Solution containing 150 mM NaCl ([…]), 2.7 mM KCl, 0.9 mM CaCl2, 4 mM Na2HPO4, 2.7 mM KH2PO4, 1.75 mg/ml BSA and 0.1 μg/ml compound 48/80. Thereafter, DHEAS or water (control) are added and the mixture is incubated for 2 min at 37° C.
Following incubation, the mixture is cooled to 4° C. then centrifuged at 4500 rpm for 5 min The supernatant is collected and mixed for 30 min at 4° C. with 5% TCA (trichloroacetic acid) to cause protein precipitation. After centrifugation at 9500×g for 15 min, the supernatant is collected and mixed with 0.25 M HCl. Thereafter, the samples are mixed with 2M NaOH and 0.2% OPT (ortho-phtalaldehyde) and incubated for 30 min at 4° C. in darkness, after which time the reaction is stopped by addition of 0.5 M H2SO4.

[5] = Solubility of DHEA-S as a function of NaCl and temperature; format: physicochemical; details: for Equilibrium constant Ksp=[DHEA-S−][Na+]: slope of solubility vs reciprocal sodium concentration
From the text: Inhalation of pure water can produce a cough stimulus. […] The temperature effect is weaker at high NaCl concentrations.

[6] = HPLC check of drug degradation during jet milling; format: physicochemical; details: HPLC peak area vs unmilled standard, single- and double-pass
Procedure: The chromatographic peak area for the HPLC assay of the unmilled drug standard solution (10 mg/ml) gave a value of 23,427. […] The chromatographic peak areas for vials A and B were 11,979 and 11,677, respectively.

[7] = test system: Intracellular adenosine in rat heart, liver, lung and brain; test: In vivo effect on adenosine levels in rat tissues
From the text: Hearts were removed from animals and flash frozen in liquid nitrogen with 10 s of death. Liver and lungs were removed en bloc and flash frozen with 30 s of death. Brain tissue was subsequently dissected.

In the case of `C[C@]12CC[C@H](O)CC1=CC[C@@H]1[C@@H]2CC[C@]2(C)C(=O)CC[C@@H]12` [DHEA, 3β-hydroxyandrost-5-en-17-one], the “Effect on cell cycle” value (HT-29 SF cells [1]) is reported as “G1 block” and the “Effect on cell growth” value (HT-29 SF cells [2]) is reported as “time- and dose-dependent inhibition of growth”.

For `CC(C)CCC[C@@H](C)[C@H]1CC[C@H]2[C@@H]3CC=C4C[C@@H](O)CC[C@]4(C)[C@H]3CC[C@]12C` [CH, cholesterol], the “Prevention of DHEA-induced reduction of cells in S phase” value (HT-29 SF cells [3]; 48 hours) was “very little effect” and the “Prevention of DHEA-induced reduction of cells in S phase” value (HT-29 SF cells [3]; 72 hours) was “no effect”.

With `C[C@]12CC[C@H](OS(=O)(=O)[O-])CC1=CC[C@@H]1[C@@H]2CC[C@]2(C)C(=O)CC[C@@H]12.[Na+]` [DHEA-S, sodium dehydroepiandrostenone sulfate] the “Solubility under the assay conditions” value ([4]; at 10^-4 M) was “highly limited”, the EC50 ([4]; compound 48/80 0.1 μg/ml, 2 min at 37° C., read-out: EC50, inhibition of histamine release) was 170 nM and the “Estimated DHEA-S concentration in solution” value ([5]; 15° C., 20 mM Na+, Ksp 1316 mM^2, quadratic formula) was 27.5 mM and 10.7 mg/mL. For the same compound, the “Ksp at 15° C.” value ([5]; interpolated versus reciprocal of absolute temperature) was ~1316 mM^2, the “Equilibrium constant Ksp=[DHEA-S−][Na+]” value ([5]; refrigerated (7-8° C.)) was 665 mM2 and the “Equilibrium constant Ksp=[DHEA-S−][Na+]” value ([5]; room temperature (24-25° C.)) was 2236 mM2. The “Degradation of the drug during jet milling micronization” value [6] was “no detectable degradation”.

For `C[C@@](O)(CCO)CC(=O)O` [MVA, mevalonic acid], the “Prevention of DHEA-induced reduction of cells in S phase” value (HT-29 SF cells [3]; 48 hours) was “partially prevented” and the “Prevention of DHEA-induced reduction of cells in S phase” value (HT-29 SF cells [3]; 72 hours) was “not after 72 hours”.

With `Nc1nc(=O)c2c([nH]1)NCC(CNc1ccc(C(=O)N[C@@H](CCC(=O)O)C(=O)O)cc1)N2C=O` (mixture of isomers) [Folinic Acid, Folinic acid] the “Effect on steroid-mediated adenosine depletion” value ([7]; coadministration with DHEA or methyltestosterone) was “completely abrogated steroid-mediated adenosine depletion” and the “Effect on adenosine levels” value ([7]; rat, in vivo) was “increase in adenosine levels for all organs studied”.
